Data from PMC10079235 (PLOS Neglected Tropical Diseases, 2023).
Where a name gives a salt, the structure may show the parent alone. Read-outs that look alike come from different tables or passages of the source.

Key:
[1] = tested on: HCT-8/WT cells; assay: MTS cytotoxicity (drug tolerance) assay; details: for TC50: WT cells, no drug selection, MTS assay
Method: (§1) Host cell drug tolerance to specified inhibitors was evaluated by 3-(4,5-dimethylthiazol-2-yl)-5-(3-carboxymethoxyphenyl)-2-(4-sulfophenyl)-2H-tetrazolium (MTS) assay. WT and transgenic host cells were seeded in 96-well plates (10,000 cells/well) and cultured for 24 h, followed by the addition of specified compounds at serially diluted concentrations and continued culture for 41 h. After 3 washes with serum-free medium, MTS solution (Saint-Bio, Shanghai, China) was added into the plates (20 μL/well) and incubated at 37°C for 2 h. Optical density at 490 nm (OD490) was measured using a Synergy LX multi-mode reader (BioTek, Winooski, VT). Drug tolerance was indicated by half-maximal cytotoxic concentrations (TC50 values) calculated by nonlinear regression using 4PL model. Selectivity index (SI) for each compound was determined by the ratio between TC50 and EC50 values (SI = TC50/EC50).

[2] = tested on: HCT-8/MDR1(NTZ) cells; assay: MTS cytotoxicity (drug tolerance) assay; details: for TC50: MDR1(NTZ) cells
Method: as §1
(§2) Surviving cells were allowed to recover in drug-free medium for 3–5 d to near confluence (round 1). The selection/recovery cycle were repeated once (round 2). […] The resulting cell lines after PTX or NTZ selection were designated as WT(PTX), NC(PTX) and MDR1(PTX), or WT(NTZ), NC(NTZ) and MDR1(NTZ), respectively (Tables 1 and S2).

[3] = tested on: HCT-8/NC(PTX) cells; assay: MTS cytotoxicity (drug tolerance) assay; details: for TC50: human, 41 h
Method: as §1, §2

[4] = tested on: HCT-8/WT(PTX) cells; assay: MTS cytotoxicity (drug tolerance) assay; details: for TC50: human, 41 h
Method: as §1, §2

[5] = tested on: HCT-8/MDR1(PTX) cells; details: for TC50: MDR1(PTX) cells; for Pct change of TC50 (vs NC): MDR1(PTX) vs NC cells
Method: as §1, §2

[6] = tested on: HCT-8/NC(NTZ) cells; assay: MTS cytotoxicity (drug tolerance) assay; details: for TC50: human, 41 h
Method: as §1
(§3) Surviving cells were allowed to recover in drug-free medium for 3–5 d to near confluence (round 1). The selection/recovery cycle were repeated once (round 2). […] Finally, all cells were cultured at the final selection concentrations of PTX or NTZ for ≥7 d, followed by culture in drug-free medium for 14 d. At this time point, cells were used for cytotoxicity and efficacy assays or cryopreserved in a liquid nitrogen tank. The resulting cell lines after PTX or NTZ selection were designated as WT(PTX), NC(PTX) and MDR1(PTX), or WT(NTZ), NC(NTZ) and MDR1(NTZ), respectively (Tables 1 and S2).

[7] = tested on: HCT-8/WT(NTZ) cells; assay: MTS cytotoxicity (drug tolerance) assay; details: for TC50: human, 41 h
Method: as §1, §3

[8] = tested on: HCT-8/NC cells; details: human, 41 h
[9] = tested on: HCT-8/MDR1 cells; assay: MTS cytotoxicity (drug tolerance) assay; details: for TC50: MDR1 cells, no drug selection, MTS assay
[10] = tested on: Cryptosporidium parvum; assay: Anti-cryptosporidial efficacy assay (44-h infection/qRT-PCR); details: for On-target (Eon) rate at EC50 / Off-target (Eoff) rate at EC50: MDR1(PTX) cell model; for On-target (Eon) rate at EC50: Eq 2; for Off-target (Eoff) rate at EC50: from Pct changes of EC50 and TC50 (Eq 1); for Action on parasite target (on-target) conclusion: MDR1-transgenic host cell model; for Eoff, proportion of off-parasite-target effect / Eon, proportion of on-parasite-target effect: MDR1(PTX) vs. NC model, Eq 3 and 4
[11] = Cryptosporidium parvum, MDR1, read-out: Antiparasitic efficacy (EC50), C. parvum cultured in MDR1(PTX) host cells
[12] = Cryptosporidium parvum, read-out: Antiparasitic efficacy (EC50), C. parvum cultured in NC host cells
[13] = Cryptosporidium parvum, read-out: Antiparasitic efficacy (EC50), C. parvum cultured in WT host cells

Compound	TC50 [1] [µM]	TC50 ([2]; after selection by NTZ) [µM]	TC50 [3] [µM]	TC50 [4] [µM]	TC50 ([5]; after selection by PTX) [µM]	TC50 [6] [µM]	TC50 [7] [µM]	TC50 [8] [µM]	TC50 [9] [µM]	Pct change of TC50 (vs NC) [5] [%]	Off-target (Eoff) rate at EC50 [10] [%]	Action on parasite target (on-target) conclusion [10]	Eoff, proportion of off-parasite-target effect ([10]; at EC10) [%]	Eoff, proportion of off-parasite-target effect ([10]; at EC20) [%]	Eoff, proportion of off-parasite-target effect ([10]; at EC30) [%]	Eoff, proportion of off-parasite-target effect ([10]; at EC40) [%]	Eoff, proportion of off-parasite-target effect ([10]; at EC50) [%]	Eoff, proportion of off-parasite-target effect ([10]; at EC60) [%]	Eoff, proportion of off-parasite-target effect ([10]; at EC80) [%]	Eoff, proportion of off-parasite-target effect ([10]; at EC90) [%]	other results
COc1cccc2c1C(=O)c1c(O)c3c(c(O)c1C2=O)C[C@@](O)(C(C)=O)C[C@@H]3O[C@H]1C[C@H](N)[C@H](O)[C@H](C)O1 [Daunorubicin, Daunorubicin HCl]	3.91	3.93	4.05	3.88	10.23	3.85	4.09	4.16	3.95	–	–	–	–	–	–	–	–	–	–	–	Fold increase of TC50 MDR1(NTZ) vs. NC ([2]; after selection by NTZ): 0.94; Fold increase of TC50 MDR1(NTZ) vs. MDR1 ([2]; after selection by NTZ vs parent cell line): 0.99; Fold change of TC50 NC(PTX) vs. NC [3]: 0.97; Fold change of TC50 WT(PTX) vs. WT [4]: 0.99; Fold change of TC50 MDR1(PTX) vs. NC ([5]; after selection by PTX): 2.46; Fold change of TC50 MDR1(PTX) vs. MDR1 ([5]; after selection by PTX vs parent cell line): 2.59; Fold change of TC50 MDR1(PTX)/NC(PTX) ([5]; ratio of TC50): 2.53; Fold increase of TC50 NC(NTZ) vs. NC [6]: 0.93; Fold increase of TC50 WT(NTZ) vs. WT [7]: 1.05; Fold change of TC50 MDR1/NC ([9]; ratio of TC50, MDR1 vs NC cells): 0.95
COc1cccc2c1C(=O)c1c(O)c3c(c(O)c1C2=O)C[C@@](O)(C(=O)CO)C[C@@H]3O[C@H]1C[C@H](N)[C@H](O)[C@H](C)O1 [Doxorubicin, Doxorubicin HCl]	4.03	6.90	4.15	4.24	–	4.21	4.18	4.34	6.67	140.3	45.5	partially on-target	26.90	32.80	37.30	41.30	45.3	49.60	61.40	72.90	EC50 [10, 11]: 1950 nM; EC50 [10, 12]: 1190 nM; EC50 [10, 13]: 1180 nM; On-target (Eon) rate at EC50 [10]: 54.5%; On-target (Eon) rate at EC50 ([10]; listed as DXR): 54.5%; Eon, proportion of on-parasite-target effect ([10]; at EC10): 73.10%; Eon, proportion of on-parasite-target effect ([10]; at EC20): 67.20%; Eon, proportion of on-parasite-target effect ([10]; at EC30): 62.70%; Eon, proportion of on-parasite-target effect ([10]; at EC40): 58.70%; Eon, proportion of on-parasite-target effect ([10]; at EC50): 54.7%; Eon, proportion of on-parasite-target effect ([10]; at EC60): 50.40%; Eon, proportion of on-parasite-target effect ([10]; at EC80): 38.60%; Eon, proportion of on-parasite-target effect ([10]; at EC90): 27.10%
CC(=O)O[C@H]1C(=O)[C@@]2(C)[C@H]([C@H](OC(=O)c3ccccc3)[C@]3(O)C[C@H](OC(=O)[C@H](O)[C@@H](NC(=O)c4ccccc4)c4ccccc4)C(C)=C1C3(C)C)[C@]1(OC(C)=O)CO[C@@H]1C[C@@H]2O [Paclitaxel]	12.75	21.94	–	16.03	45.86	12.73	12.51	12.37	20.22	270.7	-1.2	100% on-target	-4.20	-3.30	-2.60	-2.10	−1.5	-1.00	0.30	1.50	Calculated cytotoxicity at EC50 ([1]; percent inhibition of WT host cell growth at the EC50 concentration, calculated with Eq 5 from k and h): 1.92%; EC50 [10, 11]: 290 nM; EC50 [10, 12]: 300 nM; EC50 [10, 13]: 310 nM; Eoff, proportion of off-parasite-target effect ([10]; at EC70): -0.40%
Ivermectin	–	–	–	–	–	–	–	–	–	–	22.9	partially on-target	18.40	20.10	21.20	22.10	22.8	23.60	25.30	26.60	On-target (Eon) rate at EC50 [10]: 77.1%; On-target (Eon) rate at EC50 ([10]; listed as IVM): 77.1%; Eon, proportion of on-parasite-target effect ([10]; at EC10): 81.60%; Eon, proportion of on-parasite-target effect ([10]; at EC10, listed as IVM): 81.6%; Eon, proportion of on-parasite-target effect ([10]; at EC20): 79.90%; Eon, proportion of on-parasite-target effect ([10]; at EC30): 78.80%; Eon, proportion of on-parasite-target effect ([10]; at EC40): 77.90%; Eon, proportion of on-parasite-target effect ([10]; at EC50): 77.2%; Eon, proportion of on-parasite-target effect ([10]; at EC60): 76.40%; Eoff, proportion of off-parasite-target effect ([10]; at EC70): 24.40%; Eon, proportion of on-parasite-target effect ([10]; at EC70): 75.60%; Eon, proportion of on-parasite-target effect ([10]; at EC80): 74.70%; Eon, proportion of on-parasite-target effect ([10]; at EC90): 73.40%; Eon, proportion of on-parasite-target effect ([10]; at EC90, listed as IVM): 73.4%; EC50 ([10]; read-out: Antiparasitic efficacy (EC50), C. parvum cultured in MDR1(PTX) host cells): 4250 nM; EC50 ([10]; read-out: Antiparasitic efficacy (EC50), C. parvum cultured in NC host cells): 3230 nM; EC50 ([10]; read-out: Antiparasitic efficacy (EC50), C. parvum cultured in WT host cells): 3160 nM
